Data taken from the supplement of paper PMC11061612.

How the values were obtained:
[1] = test system: LB831-BLC (Bladder Carcinoma); experiment: combination Emax (second highest fraction inhibited in the dose matrix, 72 h); higher = more inhibition; extreme values may be limits of the assay
Method in brief: (§1)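 Cell lines grown in DMEM/F12 or RPMI with 10% FBS were plated in 1536-well plates and held 24 hours at 37°C, 5% CO2 before 72 hours of exposure to two-drug dose matrices, with DMSO typically at 0.2%. CellTiter-Glo 2.0 luminescence gave viability, which was converted to inhibition. Vehicle wells were set to 0 and blank wells to 1. Combination Emax is the second-highest inhibition in the matrix, and Bliss excess is the observed combination effect minus the expected EA + EB − EA·EB, where EA and EB are the single-agent effects.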

[2] = test system: UM-UC-3 (Bladder Carcinoma); experiment: as above
Method in brief: as §1

NOS-1 (Osteosarcoma) = experiment: as above
Method in brief: as §1

42-MG-BA (Glioblastoma) = experiment: as above
Method in brief: as §1

[3] = test system: EC-GI-10 (Esophageal Squamous Cell Carcinoma); experiment: as above
Method in brief: as §1

[4] = test system: KP-1N (Pancreatic Carcinoma); experiment: as above
Method in brief: as §1

[5] = test system: RO82-W-1 (Thyroid Gland Carcinoma); experiment: as above
Method in brief: as §1

[6] = test system: SNU-5 (Gastric Carcinoma); experiment: as above
Method in brief: as §1

[7] = test system: HCC1806 (Breast Carcinoma); experiment: as above
Method in brief: as §1

[8] = test system: HCC-78 (Lung Adenocarcinoma); experiment: as above
Method in brief: as §1

NB10 (Neuroblastoma) = experiment: as above
Method in brief: as §1

[9] = test system: KURAMOCHI (Ovarian Carcinoma); experiment: as above
Method in brief: as §1

[10] = test system: CAL-148 (Breast Carcinoma); experiment: as above
Method in brief: as §1

[11] = test system: Ramos-2G6-4C10 (Burkitt's Lymphoma); experiment: as above
Method in brief: as §1

[12] = test system: LB831-BLC (Bladder Carcinoma); experiment: Bliss excess, mean over the matrix (fraction); higher = more synergy
Method in brief: as §1

[13] = test system: Calu-3 (Lung Adenocarcinoma); experiment: as above
Method in brief: as §1

[14] = test system: LNCaP-Clone-FGC (Prostate Carcinoma); experiment: as above
Method in brief: as §1

AGS (Gastric Carcinoma) = experiment: as above
Method in brief: as §1

[15] = test system: SNU-5 (Gastric Carcinoma); experiment: as above
Method in brief: as §1

[16] = test system: HCC-78 (Lung Adenocarcinoma); experiment: as above
Method in brief: as §1
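Throughout, for Bliss excess, mean over the matrix: after 72 h of two-drug dosing.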

Structure (SMILES)	combination Emax [1]	combination Emax [2]	combination Emax (NOS-1 (Osteosarcoma))	combination Emax (42-MG-BA (Glioblastoma))	combination Emax [3]	combination Emax [4]	combination Emax [5]	combination Emax [6]	combination Emax [7]	combination Emax [8]	combination Emax (NB10 (Neuroblastoma))	combination Emax [9]	combination Emax [10]	combination Emax [11]	Bliss excess [12]	Bliss excess [13]	Bliss excess [14]	Bliss excess (AGS (Gastric Carcinoma))	Bliss excess [15]	Bliss excess [16]
CCN(CCO)CCCOc1ccc2c(Nc3cc(CC(=O)Nc4cccc(F)c4)[nH]n3)ncnc2c1 [AZD2811] + C=CCn1c(=O)c2cnc(Nc3ccc(N4CCN(C)CC4)cc3)nc2n1-c1cccc(C(C)(C)O)n1 [AZD1775] (first compound max 1 µM, partner max 1 µM)	0.456	0.258	0.244	0.522	0.849	0.401	0.356	0.581	0.867	0.327	0.466	0.646	0.994	0.957	0.005	-0.0306	0.0001	0.0156	-0.0294	0.0092
Cn1cnc2c(F)c(Nc3ccc(Br)cc3Cl)c(C(=O)NOCCO)cc21 [Selumetinib] + CCN(CCO)CCCOc1ccc2c(Nc3cc(CC(=O)Nc4cccc(F)c4)[nH]n3)ncnc2c1 [AZD2811] (first compound max 10 µM, 7x7, partner max 1 µM)	0.226	0.224	0.313	0.447	0.546	0.135	0.203	0.569	0.321	0.267	0.397	0.251	0.927	0.117	-0.0385	-0.0353	0.0253	0.11	0.0274	-0.0124
Cn1cnc2c(F)c(Nc3ccc(Br)cc3Cl)c(C(=O)NOCCO)cc21 [Selumetinib] + C=CCn1c(=O)c2cnc(Nc3ccc(N4CCN(C)CC4)cc3)nc2n1-c1cccc(C(C)(C)O)n1 [AZD1775] (first compound max 10 µM, partner max 1 µM)	0.406	0.268	0.818	0.282	0.919	0.257	0.183	0.638	0.919	0.345	0.712	0.65	0.849	0.997	-0.08	-0.0405	-0.15	0.0064	-0.0239	-0.0293
CN(C)CCCOc1ccc(-c2ccc3ncc4c(c3c2)n(C2CCOCC2)c(=O)n4C)cn1 [AZD0156] + O=C(c1cc(Cc2n[nH]c(=O)c3ccccc23)ccc1F)N1CCN(C(=O)C2CC2)CC1 [Olaparib] (first compound max 3 µM, partner max 3 µM)	0.26	0.289	0.328	0.402	0.436	0.277	0.313	0.439	0.479	0.448	0.593	0.152	0.604	0.745	-0.0407	-0.0153	0.0755	0.0736	0.015	0.109
COc1nnc2ccc(N3CCC(c4ccc(OCCN5CCN(C)C(=O)[C@H]5C)cc4)CC3)nn12 [AZD5153] + C[C@@H]1COCCN1C2=NC(=NC(=C2)C3(CC3)[S@](=N)(=O)C)C4=C5C=CNC5=NC=C4 [AZD6738] (first compound max 1 µM, 7x7, partner max 10 µM)	0.648	0.621	0.887	0.793	0.604	0.69	0.398	0.913	0.919	0.517	0.903	0.826	0.912	0.913	0.0393	0.0066	-0.0318	0.0381	-0.0128	-0.0235
Cn1cnc2c(F)c(Nc3ccc(Br)cc3Cl)c(C(=O)NOCCO)cc21 [Selumetinib] + C[C@@H]1COCCN1C2=NC(=NC(=C2)C3(CC3)[S@](=N)(=O)C)C4=C5C=CNC5=NC=C4 [AZD6738] (first compound max 10 µM, 7x7, partner max 10 µM)	0.278	0.312	0.784	0.53	0.647	0.175	0.266	0.961	0.938	0.537	0.916	0.554	0.825	0.847	-0.0569	-0.0295	-0.0018	0.0281	0.0524	-0.0254
CC1(C)CCC(CN2CCN(c3ccc(C(=O)NS(=O)(=O)c4ccc(NCC5CCOCC5)c([N+](=O)[O-])c4)c(Oc4cnc5[nH]ccc5c4)c3)CC2)=C(c2ccc(Cl)cc2)C1 [Venetoclax] + C=CCn1c(=O)c2cnc(Nc3ccc(N4CCN(C)CC4)cc3)nc2n1-c1cccc(C(C)(C)O)n1 [AZD1775] (first compound max 1 µM, partner max 1 µM)	0.677	0.294	0.675	0.287	0.903	0.44	0.261	0.557	0.912	0.701	0.865	0.755	0.952	0.984	-0.0004	-0.0074	-0.0599	-0.0506	-0.0649	0.0098
CC1(C)CCC(CN2CCN(c3ccc(C(=O)NS(=O)(=O)c4ccc(NCC5CCOCC5)c([N+](=O)[O-])c4)c(Oc4cnc5[nH]ccc5c4)c3)CC2)=C(c2ccc(Cl)cc2)C1 [Venetoclax] + C[C@@H]1COCCN1C2=NC(=NC(=C2)C3(CC3)[S@](=N)(=O)C)C4=C5C=CNC5=NC=C4 [AZD6738] (first compound max 1 µM, 7x7, partner max 10 µM)	0.466	0.538	0.67	0.678	0.608	0.235	0.322	0.934	0.938	0.661	0.849	0.567	0.888	0.789	0.0045	-0.0023	-0.0645	-0.0423	-0.0437	-0.0195
CN(CCO)CC[C@H](CSc1ccccc1)Nc1ccc(S(=O)(=O)NC(=O)c2ccc(N3CCC([C@@H](O)c4ccccc4-c4ccc(Cl)cc4)CC3)cc2)cc1S(=O)(=O)C(F)(F)F [AZD4320] + Cc1cc2ncnn2cc1Nc1ncc2c(n1)n(C1CCOCC1)c(=O)n2C [AZD7648] (first compound max 1 µM, 7x7, partner max 10 µM)	0.214	0.121	0.753	0.312	0.232	0.0993	0.395	0.45	0.0765	0.175	0.172	0.161	0.744	0.718	0.0041	-0.0547	-0.0622	-0.0298	-0.0151	-0.0227
COc1cc2ncnc(Nc3ccc(F)c(Cl)c3)c2cc1OCCCN1CCOCC1 [Gefitinib] + CC(C)n1c(=O)n(C)c2cnc3cc(F)c(-c4ccc(OCCCN5CCCCC5)nc4)cc3c21 [AZD1390] (first compound max 10 µM, 7x7, partner max 0.3 µM)	0.202	0.0932	0.714	0.32	0.642	0.004	0.164	0.178	0.436	0.133	0.0716	0.128	0.142	0.148	-0.0482	-0.048	-0.0491	-0.0871	-0.0887	-0.0525
C=CCn1c(=O)c2cnc(Nc3ccc(N4CCN(C)CC4)cc3)nc2n1-c1cccc(C(C)(C)O)n1 [AZD1775] + C1CN(CCC1(C(=O)N[C@@H](CCO)C2=CC=C(C=C2)Cl)N)C3=NC=NC4=C3C=CN4 [Capivasertib] (first compound max 3 µM, partner max 3 µM)	0.75	0.464	0.606	0.733	0.965	0.633	0.471	0.7	0.933	0.626	0.892	0.625	0.92	0.99	-0.0434	-0.0761	-0.0492	0.0159	-0.0655	-0.0672
CN(CCO)CC[C@H](CSc1ccccc1)Nc1ccc(S(=O)(=O)NC(=O)c2ccc(N3CCC([C@@H](O)c4ccccc4-c4ccc(Cl)cc4)CC3)cc2)cc1S(=O)(=O)C(F)(F)F [AZD4320] + C[C@@H](Nc1cc(F)cc(F)c1)c1cc(C(=O)N(C)C)cc2c(=O)cc(N3CCOCC3)oc12 [AZD8186] (first compound max 1 µM, 7x7, partner max 3 µM)	0.532	0.374	0.748	0.757	0.333	0.303	0.521	0.703	0.696	0.528	0.78	0.548	0.996	0.685	0.0441	0.002	-0.0005	0.018	0.0726	0.003
COc1cccc(OCCCN)c1-c1cc(Nc2cnc(C#N)cn2)n[nH]1 [Prexasertib] + Cc1cc2ncnn2cc1Nc1ncc2c(n1)n(C1CCOCC1)c(=O)n2C [AZD7648] (first compound max 1 µM, 7x7, partner max 10 µM)	0.314	0.56	0.321	0.908	0.713	0.246	0.45	0.983	0.978	0.736	0.918	0.672	0.734	1	-0.0865	0.0049	-0.0617	-0.018	-0.0111	-0.0841
